Read-outs that look alike come from different tables or passages of the source.
Columns and labels:
[1] = acute toxicity (LD50 and toxic symptomatology), intraperitoneal administration; format: in vivo; details: in vivo, mouse, ip, 10 days observation, graphic interpolation; for LD50 at 10 days: Swiss
Experimental: (§1) The compounds of the invention were tested to evaluate their antiinflammatory, analgesic, antipyretic, platelet aggregation inhibition and cytostatic pharmacological effects. At the same time acute toxicity tests were made in the mouse with evaluation of LD 50 and of the symptomatology resulting from the treatment.
(§2) LD 50 and toxic symptomatology resulting from the treatment were evaluated in the growing Swiss mouse by intraperitoneal administration of the different compounds. The period of observation was extended for 10 days after administration and the value of the lethal dose was calculated by graphic interpolation of the number of deaths.
(§3) In Table II are given acute toxicity data (LD50 calculated with the graphic method) obtained in the mouse after intraperitoneal administration of the various compounds and the symptomatological observations attributable to the treatment.

growing Swiss mouse = assay: as above; format: in vivo; details: ip
Experimental: as §1, §2, §3

platelet aggregation = platelet aggregation in vitro according to Born, inducer arachidonic acid; format: cell-based, human; details: inducer 1 mM arachidonic acid
Experimental: (§4) Inhibition of platelet aggregation was evaluated in vitro according to the Born method with various inducers (arachidonic acid, adrenalin, collagen) using as the substrate human plasma from healthy donors. For some new compounds the generation of thromboxane B2 and 6-keto-PGF according to the De Fryen method was evaluated. Platelet aggregation was studied in two successive periods: immediately after addition of the derivative and after 15 minutes of incubation at 37°C.
On some of the compounds which are the object of the present invention differentiated independently of the magnitude of the antiinflamatory, analgesic and antipyretic effect, preliminary tests in vitro were performed under the experimental conditions set forth above for the purpose of evaluating their effect on platelet reactivity.

growing male Wistar rat [2] = assay: antiinflammatory action, carrageenin-induced paw edema; format: in vivo; details: one dosage per product, 5-100 mg/kg, see column 'Dosage mg/kg ip'
MELANOMA B16-Fl cells = assay: cytostatic action on melanoma cells; format: cell-based; details: compounds added in vitro in different concentrations
Experimental: (§5) Cytostatic action was tested on cellular lines of Fibrosarcoma 3T3-B77 obtained by conversion of 3T3 Bald/C fibroblasts by Bratislava 77 strain RSV virus and on MELANOMA B16-Fl cells.
(§6) The influence of cellular proliferation induced by the addition in vitro of the compounds in different concentrations was evaluated.

growing male Wistar rat [3] = assay: antipyretic action, beer yeast-induced hyperthermia; format: in vivo; details: one dosage per product, 5-100 mg/kg, see column 'Dosage mg/kg ip'
Fibrosarcoma 3T3-B77 = assay: cytostatic action on fibrosarcoma cell line; format: cell-based; details: compounds added in vitro in different concentrations
Experimental: as §5, §6

male Wistar rat = assay: analgesic action, Randall and Selitto method (carrageenin-inflamed paw); format: in vivo; details: one dosage per product, 5-100 mg/kg, see column 'Dosage mg/kg ip'
[4] = haematic and urine rates after oral treatment (HPLC); format: in vivo; details: rat, 50 mg/kg os
Experimental: To preliminarily complete the pharmacological profile of the new series of compounds which are the object of the present invention and making reference to compound 8 a pharmacological test was performed in the rat and a subacute toxicity test was performed in the same animal species. Determination was performed with HPLC of the content in biological liquids.

TXB2 = assay: generation of TXB2 on whole blood after stimulation with collagen; format: cell-based; details: collagen 1 μg/ml
Experimental: as §4
The results obtained on the generation of TXB2 and 6-Keto-PGF evaluated to determine preliminarily the level of interaction on the biochemical. mechanisms underlying increased platelet reactivity are given in Table X.

SMILES: O=C(O)CCON=Cc1ccc(Cl)cc1 [compound 14]
- LD50 at 240 h [1]: 350 mg/kg
- Symptomatology (growing Swiss mouse): passivity

SMILES: O=C(O)CCON=Cc1ccccc1Cl [compound 17]
- LD50 at 240 h [1]: 400 mg/kg
- Symptomatology (growing Swiss mouse): passivity
- Percentage response variation AM (platelet aggregation; 5.10^-4 M): -79.8%
- Percentage response variation Lagt (platelet aggregation; 5.10^-4 M): +273.9%
- Percentage response variation AM (platelet aggregation; 5.10^-5 M): -33.3%
- Percentage response variation Lagt (platelet aggregation; 5.10^-5 M): +60.0%

SMILES: CC(CO/N=C/c1ccccc1)C(=O)O (stereo not drawn) [compound 24]
- Antiinflammatory action (maximum % response in first 4 hours) (growing male Wistar rat [2]): 35%
- influence on cellular proliferation (MELANOMA B16-Fl cells): significant influence on cellular proliferation
- LD50 at 240 h [1]: 750 mg/kg
- Symptomatology (growing Swiss mouse): passivity
- Antipyretic action (maximum % response in first 4 hours) (growing male Wistar rat [3]): 40%
- influence on cellular proliferation (Fibrosarcoma 3T3-B77): significant influence on cellular proliferation
- Analgesic action (maximum % response in first 4 hours) (male Wistar rat): 46%

SMILES: CC(=NOCCC(=O)O)c1ccccc1 [compound 6]
- LD50 at 240 h [1]: 600 mg/kg
- Symptomatology (growing Swiss mouse): passivity

SMILES: COc1ccc(C(C)=NOCCC(=O)O)cc1 [compound 12]
- LD50 at 240 h [1]: 850 mg/kg
- Symptomatology (growing Swiss mouse): passivity

SMILES: CCCC(CCC)=NOCCC(=O)O [compound 4]
- LD50 at 240 h [1]: 450 mg/kg
- Symptomatology (growing Swiss mouse): passivity

SMILES: COc1ccc(OC)c(C=NOCCC(=O)O)c1 [compound 16]
- LD50 at 240 h [1]: 600 mg/kg
- Symptomatology (growing Swiss mouse): passivity
- Percentage response variation AM (platelet aggregation; 5.10^-4 M): -13.3%
- Percentage response variation Lagt (platelet aggregation; 5.10^-4 M): +28.0%
- Percentage response variation AM (platelet aggregation; 5.10^-5 M): -16.1%
- Percentage response variation Lagt (platelet aggregation; 5.10^-5 M): -8.0%

SMILES: O=C(O)CCO/N=C/c1ccccc1 [compound 8]
- concentration at 1 h ([4]; plasma, 1 hour): 180 µg/mL
- concentration at 2 h ([4]; plasma, 2 hours): 145 µg/mL
- concentration at 3 h ([4]; plasma, 3 hours): 142 µg/mL
- concentration at 4 h ([4]; plasma, 4 hours): 141 µg/mL
- concentration at 6 h ([4]; plasma, 6 hours): 140 µg/mL
- concentration at 24 h ([4]; plasma, read-out: Plasma): 90 µg/mL
- concentration at 48 h ([4]; plasma, read-out: Plasma): 53 µg/mL
- concentration at 8 h ([4]; urine, 8 hours): 30 µg/mL
- concentration at 24 h ([4]; urine, read-out: Urine): 80 µg/mL
- concentration at 48 h ([4]; urine, read-out: Urine): 17 µg/mL
- influence on cellular proliferation (MELANOMA B16-Fl cells): significant influence on cellular proliferation
- LD50 at 10 days [1]: 600 mg/kg
- Symptomatology (growing Swiss mouse): passivity
- Percentage response variation AM (platelet aggregation; 5.10^-4 M): -32.3%
- Percentage response variation Lagt (platelet aggregation; 5.10^-4 M): +114.3%
- Percentage response variation AM (platelet aggregation; 5.10^-5 M): -1.5%
- Percentage response variation Lagt (platelet aggregation; 5.10^-5 M): +10.7%
- Generation of TXB2 (TXB2; 5.10^-4 M, 5 min, control 41.2): 11.7 (41.2) μg/ml
- Generation of TXB2 (TXB2; 5.10^-4 M, 15 min, control 26.5): 8.6 (26.5) μg/ml
- Generation of TXB2 (TXB2; 5.10^-4 M, 30 min, control 36.5): 8.5 (36.5) μg/ml
- Generation of TXB2 (TXB2; 5.10^-4 M, 60 min, control 65.8): 15.1 (65.8) μg/ml
- Generation of TXB2 (TXB2; 5.10^-5 M, 5 min, control 41.2): 54.3 (41.2) μg/ml
- Generation of TXB2 (TXB2; 5.10^-5 M, 15 min, control 26.5): 37.5 (26.5) μg/ml
- Generation of TXB2 (TXB2; 5.10^-5 M, 30 min, control 36.5): 41.4 (36.5) μg/ml
- Generation of TXB2 (TXB2; 5.10^-5 M, 60 min, control 65.8): 68 (65.8) μg/ml
- influence on cellular proliferation (Fibrosarcoma 3T3-B77): significant influence on cellular proliferation

SMILES: CC(C)=NOCCC(=O)O [compound 3]
- LD50 at 240 h [1]: 300 mg/kg
- Symptomatology (growing Swiss mouse): passivity

SMILES: CCC(CO/N=C/c1ccccc1)C(=O)O (stereo not drawn) [compound 25]
- Antiinflammatory action (maximum % response in first 4 hours) (growing male Wistar rat [2]): 35%
- influence on cellular proliferation (MELANOMA B16-Fl cells): significant influence on cellular proliferation
- LD50 at 240 h [1]: 800 mg/kg
- Symptomatology (growing Swiss mouse): passivity
- Antipyretic action (maximum % response in first 4 hours) (growing male Wistar rat [3]): 35%
- influence on cellular proliferation (Fibrosarcoma 3T3-B77): significant influence on cellular proliferation
- Analgesic action (maximum % response in first 4 hours) (male Wistar rat): 40%

SMILES: O=C(O)CCON=C1c2ccccc2-c2ccccc21 [compound 13]
- influence on cellular proliferation (MELANOMA B16-Fl cells): significant influence on cellular proliferation
- LD50 at 240 h [1]: 250 mg/kg
- Symptomatology (growing Swiss mouse): passivity
- influence on cellular proliferation (Fibrosarcoma 3T3-B77): significant influence on cellular proliferation

SMILES: O=C(O)CCO/N=C/c1ccc2c(c1)OCO2 [compound 21]
- LD50 at 240 h [1]: 525 mg/kg
- Symptomatology (growing Swiss mouse): passivity

SMILES: O=C(O)CCO/N=C/c1cccs1 [compound 22]
- LD50 at 240 h [1]: 1800 mg/kg
- Symptomatology (growing Swiss mouse): passivity
- Percentage response variation AM (platelet aggregation; 5.10^-4 M): +80.5%
- Percentage response variation Lagt (platelet aggregation; 5.10^-4 M): +276.0%
- Percentage response variation AM (platelet aggregation; 5.10^-5 M): +38.3%
- Percentage response variation Lagt (platelet aggregation; 5.10^-5 M): +12.0%

SMILES: O=C(O)CCON=C(c1ccccc1)c1ccccc1 [compound 7]
- LD50 at 240 h [1]: 300 mg/kg
- Symptomatology (growing Swiss mouse): passivity

SMILES: O=C(O)CCON=Cc1cccc(Cl)c1 [compound 18]
- LD50 at 240 h [1]: 325 mg/kg
- Symptomatology (growing Swiss mouse): passivity

SMILES: O=C(O)CCON=C1CCCC1 [compound 1]
- influence on cellular proliferation (MELANOMA B16-Fl cells): significant influence on cellular proliferation
- LD50 at 240 h [1]: 200 mg/kg
- Symptomatology (growing Swiss mouse): agitation
- influence on cellular proliferation (Fibrosarcoma 3T3-B77): significant influence on cellular proliferation

SMILES: O=C(O)CCON=Cc1ccco1 [compound 15]
- LD50 at 240 h [1]: 1500 mg/kg
- Symptomatology (growing Swiss mouse): negligible

SMILES: CC(=NOCCC(=O)O)c1ccc(Cl)cc1 [compound 11]
- LD50 at 240 h [1]: 250 mg/kg
- Symptomatology (growing Swiss mouse): agitation

SMILES: O=C(O)CCON=C1CCCCC1 [compound 2]
- influence on cellular proliferation (MELANOMA B16-Fl cells): significant influence on cellular proliferation
- LD50 at 240 h [1]: 50 mg/kg
- Symptomatology (growing Swiss mouse): agitation
- influence on cellular proliferation (Fibrosarcoma 3T3-B77): significant influence on cellular proliferation

SMILES: O=C(O)CCO/N=C\c1ccccc1 [compound 23]
- influence on cellular proliferation (MELANOMA B16-Fl cells): significant influence on cellular proliferation
- LD50 at 10 days [1]: 510 mg/kg
- Symptomatology (growing Swiss mouse): passivity
- influence on cellular proliferation (Fibrosarcoma 3T3-B77): significant influence on cellular proliferation

SMILES: CC(C)C(=NOCCC(=O)O)C(C)C [compound 5]
- LD50 at 10 days [1]: 400 mg/kg
- Symptomatology (growing Swiss mouse): agitation
